This test addresses T1, ferroportin (Fpn) (Mus musculus, UniProt Q9JHI9).
T1 construct: endogenous in cells; host or cells: J774 mouse macrophage cell line
T1 sequence (Q9JHI9 1-570): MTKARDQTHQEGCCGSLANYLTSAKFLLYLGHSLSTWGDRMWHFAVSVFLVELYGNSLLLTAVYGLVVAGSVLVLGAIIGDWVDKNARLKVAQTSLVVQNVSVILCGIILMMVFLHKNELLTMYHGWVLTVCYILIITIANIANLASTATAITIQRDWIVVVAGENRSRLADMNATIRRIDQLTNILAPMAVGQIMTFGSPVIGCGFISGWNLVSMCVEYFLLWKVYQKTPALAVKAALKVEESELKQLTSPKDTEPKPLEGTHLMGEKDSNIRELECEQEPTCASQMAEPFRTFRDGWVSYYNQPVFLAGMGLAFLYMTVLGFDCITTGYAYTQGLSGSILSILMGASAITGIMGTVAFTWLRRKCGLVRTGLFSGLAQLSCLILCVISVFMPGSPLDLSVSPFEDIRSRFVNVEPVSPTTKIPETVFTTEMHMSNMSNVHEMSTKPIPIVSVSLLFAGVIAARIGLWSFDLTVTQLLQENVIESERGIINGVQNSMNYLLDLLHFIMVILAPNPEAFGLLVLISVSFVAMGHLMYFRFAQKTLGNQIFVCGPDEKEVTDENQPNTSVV
Description: Hepcidin internalization assay (J774). Format: cell-based. From the text: This cellular assay allows quantification of the binding of hepcidin to ferroportin (Fpn) through microscopic detection of internalization of a fluorescently labeled hepcidin into J774 cells. […] Binding of hepcidin to Fpn triggers internalization and degradation of both hepcidin and Fpn. However, the TMR (6-carboxytetramethylrhodamine) fluorophore attached to hepcidin remains associated with the cell after degradation of the hepcidin peptide backbone. Therefore, microscopic detection of cell-associated TMR fluorescence is a measure of hepcidin binding to Fpn and internalization of hepcidin and Fpn. If TMR-hepcidin is prevented from binding to Fpn, cellular TMR fluorescence remains low (Dürrenberger et al, 2013). The effect of small molecular weight Fpn inhibitor compounds in this assay was evaluated in vitro as described below.
J774 cells, harvested from ca. 80% confluent cultures, were plated at 8x10^5 cells/ml in complete medium (DMEM, 10% FBS, 1% Penicillin-Streptomycin) containing 200 µM Fe(III)NTA (nitrilotriacetic acid), 100 µl per well of 96 well MicroClear plates (Greiner; Cat. 655090) and grown at 37° C. with 5% CO2. After overnight incubation, cells were washed 3 times with prewarmed DMEM w/o phenol red, 30 µl/well of DMEM w/o phenol red was added after the final wash and 10 µl/well of dilution series of test compounds were added in triplicates. J774 cells were pre-incubated with test compounds at 37° C. with 5% CO2 for 15 min. before TMR-hepcidin was added at 25 nM final concentration. Cells were incubated in a total volume of 50 µl at 37° C. with 5% CO2 for 2 hours, then Hoechst 33342 dye was added to a final concentration of 0.5 µg/ml to stain nuclei and further incubated for 10 min. at 37° C. with 5% CO2. Cells were washed 3 times with PBS and fixed in 100 µl of 4% paraformaldehyde in PBS for 15 min. at room temperature. After removal of the paraformaldehyde solution, cells were washed 3 times with PBS leaving 100 µl per well and the plates were sealed with foil plate seal. TMR (530-550 nm excitation / 575-625 nm emission / 400 ms exposure time) and Hoechst 33342 (360-370 nm excitation / 420-460 nm emission / 10 ms exposure time) fluorescence images were acquired using a ScanR plate imager (Olympus) with a 20x high NA objective. Four pictures were acquired per well and fluorescence channel covering ca. 1500 cells per well. The acquired image data was analysed with the ScanR image analysis software. Image analysis included detection of nuclei (Hoechst 33342 fluorescence), identification of cell-associated regions, application of a virtual channel and thresholding for rolling-ball-type background reduction, followed by application of the Sum(Mean) algorithm to measure the TMR fluorescence associated with cells as a quantitative measure for internalized TMR- hepcidin. IC50 values were calculated with the Sum(Mean) raw data using “log(inhibitor) vs. response” curve fitting of Prism 5 software (GraphPad Software Inc., version 5.02). For each data set the fit of the “log(inhibitor) vs. response (three parameters)″ model was compared to the fit of the “log(inhibitor) vs. response - Variable slope (four parameters)″ model and the IC50 data of the preferred model was used. IC50 data of the Compounds according to formula (II) and (II′), that were tested in the hepcidin internalization assay are shown in Table 1.

[1] abbreviates: J774 cells, (II) and (II′) tested as 3HCl-salts, n=2, read-out: Hepcidin internalization (J774) IC50.
The mark [2] stands for this setting: average of multiple measurements, hepcidin internalization assay, 3HCl-salts, read-out: J774 IC50.

Like-named read-outs stand apart in the source and are kept apart here.

A word on the IC50: it is the concentration that inhibits the measured activity by half. As to `O=C(NCc1ncccc1Br)c1coc(CCNCCc2nc3ccccc3[nH]2)n1` [Compound (II′)], the IC50 under setting [1] is 5.9 nM and the IC50 under setting [2] amounted to 6 nM.
`CC[C@H](C)[C@@H]1NC(=O)[C@@H](NC(=O)[C@@H](NC(=O)[C@@H]2CCCN2C(=O)[C@H](Cc2ccccc2)NC(=O)[C@H](Cc2c[nH]cn2)NC(=O)[C@@H](NC(=O)[C@@H](N)CC(=O)O)[C@@H](C)O)[C@@H](C)CC)CSSC[C@@H](C(=O)N[C@@H](CCCCN)C(=O)N[C@H](C(=O)O)[C@@H](C)O)NC(=O)[C@@H]2CSSC[C@@H]3NC(=O)[C@@H]4CSSC[C@H](NC(=O)[C@H](Cc5ccccc5)NC1=O)C(=O)N[C@@H](CSSC[C@H](NC(=O)[C@H](CCCCN)NC(=O)[C@H](CO)NC(=O)[C@H](CCCNC(=N)N)NC(=O)[C@H](Cc1c[nH]cn1)NC3=O)C(=O)NCC(=O)N[C@@H](CCSC)C(=O)N2)C(=O)NCC(=O)N4` [hepcidin, reference compound]: the half-inhibitory concentration (IC50) under setting [1] came out at 10.7 nM.
For the molecule `O=C(NCc1ncccc1F)c1coc(CCNCCc2nc3ccccc3[nH]2)n1` [Compound (II)], the IC50 under setting [1] was found to be 7.3 nM and the IC50 under setting [2] amounted to 7 nM.

Values taken from patent US20230212159A1, “Process for the Production of Ferroportin Inhibitors” (Vifor (International) AG, priority 2020, published 2023).
